Where a name gives a salt, the structure may show the parent alone.
Structure (SMILES)	melting point
CCN1C(=O)CCc2cc(OC)c(CNC3CCCNC3c3ccccc3)cc21 (stereo not drawn) (as salt: hydrochloride) [Example 2, 1-Ethyl-6-methoxy-7-[(2-phenyl-piperidin-3-ylamino)-methyl]-3,4-dihydro-1H-quinolin-2-one]	253 to 255 °C
COc1cc2c(cc1CNC1CCCNC1c1ccccc1)N(S(C)(=O)=O)C(=O)CC2 (stereo not drawn) (as salt: hydrochloride) [Example 3, 1-Methanesulfonyl-6-methoxy-7-[(2-phenyl-piperidin-3-ylamino)-methyl]-3,4-dihydro-1H-quinolin-2-one]	237 to 241 °C
COc1cc2c(cc1CNC1CCCNC1c1ccccc1)NC(=O)CC2 (stereo not drawn) (as salt: HCl) [Example 1, 6-Methoxy-7-[(2-phenyl-piperidin-3-ylamino)-methyl]-3,4-dihydro-1H-quinolin-2-one]	233 to 235 °C
COc1cc2c(cc1CNC1CCCNC1c1ccccc1)N(C)C(=O)CC2(C)C (stereo not drawn) (as salt: hydrochloride) [Example 4, 6-Methoxy-1,4,4-trimethyl-7-[(2-phenyl-piperidin-3-ylamino)-methyl]-3,4-dihydro-1H-quinolin-2-one]	> 280 °C

Now from value to molecule:

melting point	Structure (SMILES)
222 to 224 °C (dec.)	COc1cc2c(cc1CN[C@H]1CCCN(C(=O)C(F)(F)F)[C@H]1c1ccccc1)N(C)C(=O)CC2 (as salt: hydrochloride) [Example 10, 6-Methoxy-1-methyl-7-[(2S,3S)-(2-phenyl-1-trifluoroacetyl-piperidin-3-ylamino)-methyl]-3,4-dihydro-1H-quinolin-2-one]
> 250 °C (dec.)	COc1cc2c(cc1CN[C@H]1CCCN(C)[C@H]1c1ccccc1)C(C)(C)C(=O)N2C (as salt: hydrochloride) [Example 14, 5-[{(2S,3S)-1-Methyl-2-phenyl-piperidin-3-ylamino}-methyl]-6-methoxy-1,3,3-trimethyl-1,3-dihydro-indol-2-one]
231 to 234 °C (dec.)	CCC1CCC(NCc2cc3c(cc2OC)C2CC2C(=O)N3C)C(c2ccccc2)N1 (stereo not drawn) [Example 85, 5-[(6-Ethyl-2-phenyl-piperidin-3-ylamino)-methyl]-6-methoxy-3-methyl-1,1a,3,7b-tetrahydro-3-aza-cyclopropa[a]naphthalen-2-one]
> 270 °C	COc1cc2c(c(F)c1CNC1CCCNC1c1ccccc1)N(C)C(=O)CC2(C)C (stereo not drawn) (as salt: hydrochloride) [Example 5, 8-Fluoro-6-methoxy-1,4,4-trimethyl-7-[(2-phenyl-piperidin-3-ylamino)-methyl]-3,4-dihydro-1H-quinolin-2-one]
> 250 °C (dec.)	COc1cc2c(cc1CN[C@H]1CCCN(Cc3n[nH]c(=O)[nH]3)[C@H]1c1ccccc1)C(C)(C)C(=O)N2C [Example 18, 6-Methoxy-1,3,3-trimethyl-5-{[(2S,3S)-1-(5-oxo-4,5-dihydro-1H-[1,2,4]triazol-3-ylmethyl)-2-phenyl-piperidin-3-ylamino]-methyl}-1,3-dihydro-indol-2-one]

Source: patent US7119207B2, “Benzoamide piperidine containing compounds and related compounds” (Pfizer INC, priority 2000, dated 2006)
